We go through 21 compounds from US10752616B2, “Bicycloheteroaryl-heteroaryl-benzoic acid compounds as retinoic acid receptor beta (RARβ) agonists” (King's College London, priority 2014, dated 2020).

For orientation: EC50 means the concentration needed to bring the measured effect to its halfway point. A higher EC50 goes with a less potent agent.

Test [1] has as its target T1, RARα (Homo sapiens (Human), UniProt P10276). In words: Subtype-specific transactivation from Yoshimura et al., 2000, RARα. The format is cell-based. The following applies: ratio of relative EC30 (transactivation), Table 6.
In test [2] the target is T2, RARγ (Homo sapiens (Human), UniProt P13631). In words: Subtype-specific transactivation from Yoshimura et al., 2000, RARγ. The format is cell-based. As to conditions: ratio of relative EC30 (transactivation), Table 6.
T2 sequence (P13631 whole entry, species assumed): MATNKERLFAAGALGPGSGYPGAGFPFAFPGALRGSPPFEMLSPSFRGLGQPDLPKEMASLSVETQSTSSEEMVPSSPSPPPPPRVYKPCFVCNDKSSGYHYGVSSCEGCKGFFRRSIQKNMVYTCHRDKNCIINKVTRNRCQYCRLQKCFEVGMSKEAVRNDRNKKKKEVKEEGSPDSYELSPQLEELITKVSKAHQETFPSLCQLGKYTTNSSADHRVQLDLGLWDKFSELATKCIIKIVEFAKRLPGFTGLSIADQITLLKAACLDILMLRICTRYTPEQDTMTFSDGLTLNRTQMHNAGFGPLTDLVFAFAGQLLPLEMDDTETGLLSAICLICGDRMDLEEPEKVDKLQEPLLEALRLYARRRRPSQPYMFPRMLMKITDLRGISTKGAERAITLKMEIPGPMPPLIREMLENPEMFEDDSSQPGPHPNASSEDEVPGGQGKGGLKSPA
Test [3] has as its target T1, RARα. The following applies: transactivation, relative to atRA = 1; cited from earlier work.
The target of test [4] is RARβ (Homo sapiens (Human), UniProt P10826). The following applies: transactivation, relative to atRA = 1; cited from earlier work.
Sequence of RARβ (Homo sapiens (Human), UniProt P10826) (P10826 whole entry, species assumed): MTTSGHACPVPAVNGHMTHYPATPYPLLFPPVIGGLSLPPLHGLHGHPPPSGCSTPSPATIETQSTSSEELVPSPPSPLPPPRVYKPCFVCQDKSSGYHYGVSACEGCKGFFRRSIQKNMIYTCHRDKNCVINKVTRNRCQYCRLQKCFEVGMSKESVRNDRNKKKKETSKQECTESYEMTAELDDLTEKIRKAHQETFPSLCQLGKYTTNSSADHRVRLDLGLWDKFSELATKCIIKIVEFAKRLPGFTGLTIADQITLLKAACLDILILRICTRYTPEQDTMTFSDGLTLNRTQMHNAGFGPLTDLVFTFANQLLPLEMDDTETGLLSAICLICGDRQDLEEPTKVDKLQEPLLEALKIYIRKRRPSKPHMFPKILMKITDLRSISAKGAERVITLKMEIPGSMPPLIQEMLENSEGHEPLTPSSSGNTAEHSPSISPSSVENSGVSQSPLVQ
The target in test [5] is T2, RARγ. As to conditions: transactivation, relative to atRA = 1; cited from earlier work.
Test [6] concerns the target RARβ (Mus musculus (Mouse), UniProt P22605). In words: Transactivation assay for RARβ (gal4-RAR fusion, pFR-luc reporter, COS-7 cells), Table 2. The format is cell-based. The following applies: COS-7 reporter, mean of three or more determinations, species not stated (method: mouse or human). The procedure:
(§1) Transcriptional transactivation assays were performed with gal4 fusion receptor constructs, created using each of the RAR ligand binding domains of either mouse or human, co-transfected with the pFR-luc (Stratagene) reporter construct in COS-7 cells.
(§2) Briefly, on day 1, 96 well plates were seeded with 8000 cells per well then left to recover overnight. On day 2, the cells were co-transfected with 100 ng of reporter plasmid and 10 ng of the appropriate receptor plasmid per well using lipofectamine (Invitrogen). On day 3, the lipofectamine containing media was replaced by a DMEM without phenol red, followed by the addition of test compound dissolved in 1 μL of DMSO to each well's 100 μL total volume. Finally, on day 4, the cells were lysed and their luciferase substrate was provided by the BrightGlo™ reagent (Promega), the plates were then read on the MicroBeta TriLux™ (Perkin Elmer).
(§3) Data for test compounds are quoted as EC50 values. Where replicate data has been generated, the data are quoted as the mean EC50 from the separate experiments.
(§4) EC50's values are reported as mean values of three or more determinations.

The target in test [7] is RARα (Mus musculus (Mouse), UniProt P11416). Briefly: Transactivation assay for RARα (gal4-RAR fusion, pFR-luc reporter, COS-7 cells), Table 2. The format is cell-based. The following applies: for EC50: Table 2, COS-7 reporter, mean of three or more determinations, inactive = no agonist action at highest concentration tested; for RARα/RARβ ratio: fold-selectivity for RARβ over RARα, >1 = selective for RARβ. As to the method: as §1, §2, §3, §4
Sequence of RARα (Mus musculus (Mouse), UniProt P11416) (P11416 183-417): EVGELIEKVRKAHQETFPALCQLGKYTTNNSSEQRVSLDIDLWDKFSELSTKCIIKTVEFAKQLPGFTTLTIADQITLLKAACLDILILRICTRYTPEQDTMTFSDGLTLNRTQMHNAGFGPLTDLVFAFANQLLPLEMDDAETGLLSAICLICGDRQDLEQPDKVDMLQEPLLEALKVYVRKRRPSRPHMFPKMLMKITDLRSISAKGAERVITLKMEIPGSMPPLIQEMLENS

For test [8], the target named is RARγ (Mus musculus (Mouse), UniProt P18911). Briefly: Transactivation assay for RARγ (gal4-RAR fusion, pFR-luc reporter, COS-7 cells), Table 2. The following applies: for EC50: Table 2, COS-7 reporter, mean of three or more determinations, inactive = no agonist action at highest concentration tested; for RARγ/RARβ ratio: fold-selectivity for RARβ over RARγ, >1 = selective for RARβ. The format is cell-based. As to the method:
as §1, §2, §3, §4

Sequence of RARγ (Mus musculus (Mouse), UniProt P18911) (P18911 185-419): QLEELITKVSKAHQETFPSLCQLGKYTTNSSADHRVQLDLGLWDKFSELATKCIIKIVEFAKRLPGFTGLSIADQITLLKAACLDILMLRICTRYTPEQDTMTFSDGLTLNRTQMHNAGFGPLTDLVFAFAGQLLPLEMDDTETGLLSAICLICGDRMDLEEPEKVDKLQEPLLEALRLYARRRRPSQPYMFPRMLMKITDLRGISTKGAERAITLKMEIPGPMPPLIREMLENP
T1 sequence (P10276 whole entry, species assumed): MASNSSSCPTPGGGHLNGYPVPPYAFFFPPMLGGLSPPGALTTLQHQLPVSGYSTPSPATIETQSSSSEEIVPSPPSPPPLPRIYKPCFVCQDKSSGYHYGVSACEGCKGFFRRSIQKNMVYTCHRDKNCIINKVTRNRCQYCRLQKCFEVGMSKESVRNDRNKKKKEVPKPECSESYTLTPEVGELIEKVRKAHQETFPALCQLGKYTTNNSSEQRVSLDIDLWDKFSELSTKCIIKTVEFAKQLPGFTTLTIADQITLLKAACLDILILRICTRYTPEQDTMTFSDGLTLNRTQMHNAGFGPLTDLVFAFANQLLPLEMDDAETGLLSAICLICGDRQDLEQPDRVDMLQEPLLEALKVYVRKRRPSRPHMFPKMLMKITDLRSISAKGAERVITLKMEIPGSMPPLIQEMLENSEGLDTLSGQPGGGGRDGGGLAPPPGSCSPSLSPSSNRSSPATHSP
Sequence of RARβ (Mus musculus (Mouse), UniProt P22605) (P22605 210-444): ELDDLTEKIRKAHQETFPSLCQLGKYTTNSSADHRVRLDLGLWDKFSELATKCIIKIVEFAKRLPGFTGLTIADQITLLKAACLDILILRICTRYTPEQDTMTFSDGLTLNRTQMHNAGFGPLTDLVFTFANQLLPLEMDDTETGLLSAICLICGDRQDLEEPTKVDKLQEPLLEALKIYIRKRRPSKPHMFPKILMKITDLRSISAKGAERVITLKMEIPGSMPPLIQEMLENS

`Cc1ccc(C)c2sc(-c3ccc(-c4ccc(C(=O)O)cc4)[nH]3)cc12` [1j]: the RARα/RARβ ratio at RARα [1] is on record as 0.010. Also, on RARγ [2], the RARγ/RARβ ratio came out at 6.46. Further, the “RARα relative EC30” value at RARα [3] is reported as 1.3 ± 0.6. Also, the “RARβ relative EC30” value at RARβ [4] is reported as 130 ± 60. For the same compound, at RARγ [5], the “RARγ relative EC30” value is 840 ± 360.

As for `O=C(O)c1ccc(-c2ccc(-c3cc4c(F)ccc(F)c4o3)[nH]2)cc1` [1e], the RARα/RARβ ratio at RARα [1] came out at 0.0038. In addition, at RARγ [2], the RARγ/RARβ ratio amounted to 8.33. The “RARα relative EC30” value on RARα [3] is given as 0.80 ± 0.17. In addition, the “RARβ relative EC30” value on RARβ [4] is listed as 210 ± 40. Further, the “RARγ relative EC30” value on RARγ [5] is 1750 ± 750.

The compound `Cc1ccc(C)c2c(C)c(-c3nc(-c4ccc(C(=O)O)cc4Cl)no3)oc12` [BHBA-009, 3-Chloro-4-(5-(3,4,7-trimethylbenzofuran-2-yl)-1,2,4-oxadiazol-3-yl)benzoic acid] returned an EC50 at RARβ [6] of 0.0042 µM. On RARα [7], a half-maximal effect (EC50) was put at 0.032 µM and the RARα/RARβ ratio is reported as 7.6. At RARγ [8], it took 0.011 µM to reach a half-maximal effect (EC50) and the RARγ/RARβ ratio was 2.6.

As for `Cc1cc(-c2nsc(-c3cc4c(C)ccc(C)c4o3)n2)ccc1C(=O)O` [BHBA-040, 4-(5-(4,7-Dimethylbenzofuran-2-yl)-1,2,4-thiadiazol-3-yl)-2-methylbenzoic acid], the EC50 on RARβ [6] amounted to 0.011 µM; on RARα [7] it was 0.072 µM; at RARγ [8], 0.13 µM.

`Cc1ccc(C)c2oc(-c3nnc(-c4ccc(C(=O)O)cc4Cl)o3)cc12` [BHBA-036, 3-Chloro-4-(5-(4,7-dimethylbenzofuran-2-yl)-1,3,4-oxadiazol-2-yl)benzoic acid]: the response at RARβ [6] was half-maximal at 0.028 µM (EC50). In addition, on RARα [7], a half-maximal effect (EC50) was put at 0.225 µM and the RARα/RARβ ratio is listed as 8. Besides, on RARγ [8], a half-maximal effect (EC50) was put at 0.058 µM and the RARγ/RARβ ratio amounted to 2.1.

In the case of `Cc1c(Cl)cc(C)c2oc(-c3nc(-c4ccc(C(=O)O)cc4)no3)cc12` [BHBA-045, 4-(5-(5-Chloro-4,7-dimethylbenzofuran-2-yl)-1,2,4-oxadiazol-3-yl)benzoic acid], the EC50 on RARβ [6] came to 0.004 µM; on RARα [7], 0.091 µM; at RARγ [8], 0.04 µM.

`Cc1ccc(C)c2oc(-c3noc(-c4ccc(C(=O)O)c(F)c4)n3)cc12` [BHBA-033, 4-(3-(4,7-Dimethylbenzofuran-2-yl)-1,2,4-oxadiazol-5-yl)-2-fluorobenzoic acid] returned an EC50 at RARβ [6] of 0.013 µM. Also, on RARα [7], the EC50 came to 0.045 µM and the RARα/RARβ ratio is 3.5. At RARγ [8], the response was half-maximal at 0.023 µM (EC50) and the RARγ/RARβ ratio is 1.8.

Regarding `Cc1ccc(C)c2oc(-c3nc(-c4ccc(C(=O)O)cc4Cl)ns3)cc12` [BHBA-039, 3-Chloro-4-(5-(4,7-dimethylbenzofuran-2-yl)-1,2,4-thiadiazol-3-yl)benzoic acid], the EC50 at RARβ [6] worked out at 0.0036 µM; at RARα [7], 0.065 µM; on RARγ [8] it was 0.013 µM.

As for `Cc1ccc(C)c2oc(-c3nsc(-c4ccc(C(=O)O)c(F)c4)n3)cc12` [BHBA-044, 4-(3-(4,7-Dimethylbenzofuran-2-yl)-1,2,4-thiadiazol-5-yl)-2-fluorobenzoic acid], the figures for the EC50 at RARβ [6], at RARα [7] and on RARγ [8] were 0.002 µM, 0.026 µM and 0.0034 µM, respectively. Besides, the RARα/RARβ ratio on RARα [7] turned out to be 13. The RARγ/RARβ ratio at RARγ [8] is 1.7.

At RARβ [6], `Cc1ccc(C(C)C)c2cc(-c3nc(-c4ccc(C(=O)O)cc4)no3)oc12` [BHBA-010, 4-(5-(4-Isopropyl-7-methylbenzofuran-2-yl)-1,2,4-oxadazol-3-yl)benzoic acid] had an EC50 of 0.0029 µM. On RARα [7], the EC50 is 0.025 µM and the RARα/RARβ ratio is 8. Besides, at RARγ [8], the EC50 is 0.00053 µM and the RARγ/RARβ ratio came out at 0.18.

Turning to `O=C(O)c1ccc(-c2noc(-c3cc4c(Cl)ccc(Cl)c4o3)n2)c(Cl)c1` [BHBA-012, 3-Chloro-4-(5-(4,7-dichlorobenzofuran-2-yl)-1,2,4-oxadiazol-3-yl)benzoic acid], the EC50 at RARβ [6] came to 0.017 µM. Further, on RARα [7], a half-maximal response (EC50) required 0.067 µM and the RARα/RARβ ratio was determined as 4. Besides, on RARγ [8], a half-maximal response (EC50) required 0.017 µM and the RARγ/RARβ ratio worked out at 1.

As for `O=C(O)c1ccc(-c2noc(-c3cc4c(Cl)ccc(Cl)c4o3)n2)cc1` [BHBA-011, 4-(5-(4,7-Dichlorobenzofuran-2-yl)-1,2,4-oxadiazol-3-yl)benzoic acid], the EC50 was 0.0043 µM at RARβ [6], 0.026 µM on RARα [7] and 0.014 µM on RARγ [8].

At RARβ [6], `Cc1ccc(C)c2sc(-c3nc(-c4ccc(C(=O)O)cc4)no3)nc12` [BHBA-027, 4-(5-(4,7-Dimethylbenzo[d]thiazol-2-yl)-1,2,4-oxadiazol-3-yl)benzoic acid] showed an EC50 of 0.009 µM. At RARα [7], the response was half-maximal at 0.061 µM (EC50) and the RARα/RARβ ratio came to 6.7. Moreover, at RARγ [8], the EC50 stood at 0.025 µM and the RARγ/RARβ ratio came to 2.7.

For the compound `Cc1ccc(C)c2oc(-c3nc(-c4ccc(C(=O)O)cc4N)no3)cc12` [BHBA-005, 3-Amino-4-(5-(4,7-dimethylbenzofuran-2-yl)-1,2,4-oxadiazol-3-yl)benzoic acid], the EC50 at RARβ [6] worked out at 0.023 µM. Besides, on RARα [7], the response was half-maximal at 0.13 µM (EC50) and the RARα/RARβ ratio is 5. At RARγ [8], the EC50 was found to be 0.055 µM and the RARγ/RARβ ratio turned out to be 2.

As for `Cc1ccc(C)c2oc(-c3nc(-c4ccc(C(=O)O)cc4Cl)no3)nc12` [BHBA-024, 3-Chloro-4-(5-(4,7-dimethylbenzo[d]oxazol-2-yl)-1,2,4-oxadiazol-3-yl)benzoic acid], at RARβ [6], the EC50 was found to be 0.024 µM. Besides, at RARα [7], the EC50 stood at 0.18 µM and the RARα/RARβ ratio is recorded as 7.5. In addition, on RARγ [8], the EC50 is 0.047 µM and the RARγ/RARβ ratio came to 2.

Turning to `Cc1ccc(C)c2oc(-c3nnc(-c4ccc(C(=O)O)cc4)o3)cc12` [BHBA-034, 4-(5-(4,7-Dimethylbenzofuran-2-yl)-1,3,4-oxadiazol-2-yl)benzoic acid], the values for the EC50 on RARβ [6], at RARα [7] and on RARγ [8] were 0.02 µM, 0.092 µM and 0.058 µM, respectively. For the same compound, the RARα/RARβ ratio at RARα [7] was determined as 4.6. Further, at RARγ [8], the RARγ/RARβ ratio is 2.9.

Take `Cc1ccc(C)c2oc(-c3nsc(-c4ccc(C(=O)O)cc4)n3)cc12` [BHBA-042, 4-(3-(4,7-Dimethylbenzofuran-2-yl)-1,2,4-thiadiazol-5-yl)benzoic acid]: the EC50 on RARβ [6] is 0.0031 µM; on RARα [7], 0.0094 µM; on RARγ [8], 0.0023 µM. Moreover, on RARα [7], the RARα/RARβ ratio is listed as 3. The RARγ/RARβ ratio on RARγ [8] is on record as 0.74.

On to `Cc1ccc(C)c2oc(-c3noc(-c4ccc(C(=O)O)cc4F)n3)cc12` [BHBA-030, 4-(3-(4,7-Dimethylbenzofuran-2-yl)-1,2,4-oxadiazol-5-yl)-3-fluorobenzoic acid], for which the midpoint of the response at RARβ [6], the EC50, lay at 0.01 µM. For the same compound, at RARα [7], the midpoint of the response, the EC50, lay at 0.058 µM and the RARα/RARβ ratio is 5.8. For the same compound, at RARγ [8], the EC50 was 0.018 µM and the RARγ/RARβ ratio came to 1.8.

With `Cc1ccc(C)c2c(C)c(-c3nc(-c4ccc(C(=O)O)cc4)no3)oc12` [BHBA-008, 4-(5-(3,4,7-Trimethylbenzofuran-2-yl)-1,2,4-oxadiazol-3-yl)benzoic acid], the figures for the EC50 at RARβ [6], on RARα [7] and at RARγ [8] were 0.0019 µM, 0.017 µM and 0.0068 µM, respectively.

The compound `O=C(O)c1ccc(-c2noc(-c3cc4c(C(F)(F)F)ccc(F)c4o3)n2)cc1` [BHBA-019, 4-(5-(7-Fluoro-4-(trifluoromethyl)benzofuran-2-yl)-1,2,4-oxadiazol-3-yl)benzoic acid] registered an EC50 at RARβ [6] of 0.0025 µM. For the same compound, at RARα [7], the midpoint of the response, the EC50, lay at 0.019 µM and the RARα/RARβ ratio came to 7.6. Further, at RARγ [8], the EC50 was 0.0053 µM and the RARγ/RARβ ratio is recorded as 2.

`Cc1ccc(C)c2oc(-c3nc(-c4ccc(C(=O)O)c(F)c4)no3)cc12` [BHBA-007, 2-Fluoro-4-(5-(4,7-dimethylbenzofuran-2-yl)-1,2,4-oxadiazol-3-yl)benzoic acid]: the 50% effective concentration (EC50) was 0.0022 µM at RARβ [6], 0.016 µM on RARα [7] and 0.0084 µM on RARγ [8].
